The target in experiment [1] is T1, MK2 (Homo sapiens (Human), UniProt P49137). Conditions: percentage of modified protein after 60 minutes at room temperature, 10-fold excess of compound; MALDI (I-1 to I-50), magnetic bead MALDI (I-51 to I-129).
Method: Aliquots of the resulting mixture (6 μL each) were diluted with 0.2% trifluoroacetic acid (TFA, 10 μL) prior to micro C4 ZipTipping directly onto the MALDI target using sinapinic acid as the desorption matrix (10 mg/ml in 0.1% TFA:acetonitrile 50:50, v/v). The centroid mass of the target protein in the control sample was compared with the centroid mass of the target protein incubated with compound. A shift in the centroid mass of the treated protein compared to the untreated protein was divided by the molecular weight of the compound. This number corresponds to the percentage of modified protein (a measure of the proportion of total target protein covalently bound to the test compound) after one hour incubation.
3 μL of magnetic Ni-NTA beads were added to the 6 μL aliquots of sample, washed, eluted with 0.2% trifluoroacetic acid (TFA, 2 μL), and spotted directly onto the MALDI target using sinapinic acid as the desorption matrix (10 mg/ml in 0.1% TFA:acetonitrile 50:50, v/v). The centroid mass of the target protein in the control sample was compared with the centroid mass of the target protein incubated with compound. A shift in the centroid mass of the treated protein compared to the untreated protein was divided by the molecular weight of the compound. This number corresponds to the percentage of modified protein (a measure of the proportion of total target protein covalently bound to the test compound) after one hour incubation.
For experiment [2], the target named is T1, MK2. The experiment is described as follows: MK2 cellular assay, total and phospho-Hsp27 (Serine 78) by MSD ELISA (Thp1). Type of experiment: cell-based. The procedure: MK2 Cellular Assay—Detection of Total and Phospho-Hsp27 (Serine 78) by MSD ELISA (Thp1)
Compounds of the invention were assayed in Thp-1 human acute monocytic leukemia cells to measure inhibition of MK2 activity. Thp-1 cells were grown in culture medium containing RPMI/10% FBS (fetal bovine serum)/0.05 mM 2-mercaptoethanol. 72 hours prior to the assay, 8×10^4 cells per well were plated in a 96 well flat bottom plate along with 10 ng/mL phorbol 12-myristate 13-acetate (PMA). Cells were cultured in an incubator at 37° C. until needed for the assay. Cell plate media was replaced with culture media just prior to assay while compound dilutions were being made.
Stock solutions of test compound, 1 mM in DMSO, were prepared. 0.9 μl of test compound was added to 300 μl cell media for a starting concentration of 3000 nM. […] Cell plate media was discarded, followed by addition of 100 μl of the compound containing media. The resulting preparation was incubated at 37° C. for 1 hour.
Test compound-containing cell assay media was removed and the cells were washed once with cell assay media. Cell assay media containing 50 ng/mL LPS (lipopolysaccharide) was added to the each well and incubated for 45 minutes. Following LPS incubation, the cells were washed once with PBS (phosphate-buffered saline) and lysed with 60 μl Cell Extraction Buffer (Invitrogen #FNN0011) plus protease and phosphatase inhibitors. The plate was then stored at −80° C. until further analysis.
The MULTI-SPOT Phospho(Ser78)/Total HSP27 ELISA Assay kit was purchased from Meso Scale […] (MSD; catalog #K15128D). […] The pre-coated MSD plate was blocked with 150 μL/well of 3% BSA in MSD wash buffer. The preparation was placed on a shaker at room temperature for an hour. While the ELISA plate was blocked, the cell assay plate stored at −80° C. was placed on a shaker at 4° C. for 1 hour to thaw.
The blocked MSD plate was washed on a plate washer, tapping out the last bit of wash solution, followed by addition of 30 μl of the lysate from the cell assay plate. The preparation was covered and incubated for 1 hour at room temperature. The lysate was removed, the plate was washed 3 times on a plate washer and the last bit of wash buffer was tapped out and replaced with 25 μl/well detection antibody (anti-total HSP27 conjugated with an electrochemiluminescent compound, MSD SULFO-TAG label, supplied in kit) made in 1% BSA/MSD wash buffer. The plate was incubated for 1 hour at room temperature on a shaker, followed by 3 washes. The last bit of wash buffer was tapped out. 150 μl/well 1×MSD read buffer was added (4× read buffer supplied with kit) and the plate was analyzed on the MSD SECTOR® Imager for analysis. The SECTOR® Imager measures intensity of emitted light to provide a quantitative measure of phosphorylated HSP27 (Ser78) and total HSP27 present in the sample. The relative percent phosphoprotein in a sample is calculated by dividing the Phospho-HSP27 signal intensity over the total HSP27 signal intensity measured in each well.

For experiment [3], the target named is p38α activated, mitogen-activated protein kinase-activated protein kinase 2 (MAPKAP-K2 or MK2) enzyme (Homo sapiens (Human), UniProt P49137). Briefly: MK2 Omnia continuous-read kinase assay for compound potency. Type of experiment: biochemical. The source says: Mitogen-Activated Protein Kinase-Activated Protein Kinase 2 Omnia® Assay for Compound Potency Assessment:
The protocol below describes a continuous-read kinase assay optimized to measure potency of compounds against p38α activated, mitogen-activated protein kinase-activated protein kinase 2 (MAPKAP-K2 or MK2) enzyme. Further details of this assay are described by Life Technologies, Carlsbad, Calif. on their website at the following URL: http://tools.lifetechnologies.com/content/sfs/manuals/omnia_kinase_assay_man.pdf.
[Reagent] used: • [MK-2]=0.4 nM, • [ATP]=10 μM and • [ST3-Sox]=10 μM (ATP^appKM=10 μM)
Kinase reactions were started with the addition of 45 μL of the ATP-peptide substrate S/T3-Sox mix and monitored every 71 seconds for 120 minutes at λex360/λem485 in a Synergy H4 plate reader from BioTek (Winooski, Vt.) at room temperature.
Background signals from the no enzyme control wells were subtracted from all progress curves. The initial linear portions of the net progress curves were fit according to a linear equation to yield the slope and percentage of inhibition (% inhibition) at each compound concentration. The net progress curves obtained during the first two hours of reactions were also fit according to an ascending single-exponential equation (Eq. 1) to yield kobs values at each compound concentration. Plots of % Inhibition versus inhibitor concentrations were fit according to a dose-response equation (Eq. 2) to generate IC50 and Hill slope values while plots of kobs versus inhibitor concentration were fit according to Equation 3 (Eq. 3) to generate apparent kinact/KI values using the GraphPad PRISM software (Version 6.00; GraphPad San Diego, Calif.).
[formula] where F is the fluorescence intensity from the plate reader, V0 is a constant reflecting the relationship between the instrument readout and product concentration, t is time, e is Euler's number, and kobs is the observed inactivation rate constant.
[formula] where % Inhibition is percentage of inhibition, IC50 is half maximal inhibitory concentration, [I] is the inhibitor concentration, and n is the Hill slope.

The mark [4] stands for this setting: Thp-1 cells, 1 hour compound, 50 ng/mL LPS 45 minutes, p-HSP27 (Ser78)/total HSP27, read-out: pHSP27 signaling EC50.
The mark [5] stands for this setting: [MK-2]=0.4 nM, [ATP]=10 μM, [ST3-Sox]=10 μM, read-out: MK2 IC50.

Read-outs that look alike come from different tables or passages of the source.
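For Mass Modification in this document: covalent binding read from centroid mass shift of compound-treated versus untreated intact MK2, shift divided by compound molecular weight, giving fraction of total protein bound.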

T1 sequence (P49137 whole entry): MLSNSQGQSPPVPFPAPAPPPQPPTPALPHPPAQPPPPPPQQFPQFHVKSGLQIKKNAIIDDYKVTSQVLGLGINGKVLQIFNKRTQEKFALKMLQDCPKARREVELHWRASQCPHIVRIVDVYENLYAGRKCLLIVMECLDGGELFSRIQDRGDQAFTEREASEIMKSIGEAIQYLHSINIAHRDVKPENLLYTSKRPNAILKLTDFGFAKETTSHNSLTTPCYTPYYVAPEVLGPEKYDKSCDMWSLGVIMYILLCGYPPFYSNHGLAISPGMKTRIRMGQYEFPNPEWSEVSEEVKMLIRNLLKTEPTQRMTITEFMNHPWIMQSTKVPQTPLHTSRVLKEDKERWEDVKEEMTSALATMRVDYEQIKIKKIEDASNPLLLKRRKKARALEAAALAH
p38α activated, mitogen-activated protein kinase-activated protein kinase 2 (MAPKAP-K2 or MK2) enzyme, sequence (P49137 whole entry): as above

As for `C[C@@H]1CNc2c(sc3ccc4nc(Nc5cc(F)ncc5C(N)=O)ccc4c23)C(=O)N1` [I-29, (R)-6-fluoro-4-((10-methyl-8-oxo-9,10,11,12-tetrahydro-8H-[1,4]diazepino[5′,6′:4,5]thieno[3,2-f]quinolin-3-yl)amino)nicotinamide], the “Mass Modification” value at MK2 [1] is listed as “G (mass modification ≦30%)”. The EC50 (usually the midpoint of the concentration-response curve) at MK2 [2] (setting [4]) is greater than 1000 nM. Also, the IC50 – broadly, the concentration that inhibits the measured activity by half – in experiment [3] (setting [5]) was less than 100 nM.
The like results for `NC(=O)c1cnc(Cl)nc1Nc1ccc2c(ccc3sc4c(c32)NC[C@@H](CO)NC4=O)n1` [I-30, (S)0-2-chloro-4-((10-(hydroxymethyl)-8-oxo-9,10,11,12-tetrahydro-8H-[1,4]diazepino[5′,6′:4,5]thieno[3,2-f]quinolin-3-yl)amino)pyrimidine-5-carboxamide] were, in that order, “E (mass modification of ≧70%)”, 101 to 500 nM and less than 100 nM.
As for `C[C@@H]1CNc2c(sc3ccc4nc(N(CCN(C)C)c5cc(F)ncn5)ccc4c23)C(=O)N1` [I-33, (R)-3-((2-(dimethylamino)ethyl)(6-fluoropyrimidin-4-yl)amino)-10-methyl-9,10,11,12-tetrahydro-8H-[1,4]diazepino[5′,6′:4,5]thieno[3,2-f]quinolin-8-one], the “Mass Modification” value at MK2 [1] is “F (mass modification of 31-69%)”. This compound yielded an EC50 on MK2 [2] greater than 1000 nM. Besides, in experiment [3], the half-maximal inhibitory concentration (IC50) is 501 to 999 nM.
Consider `C[C@@H]1CNc2c(sc3ccc4nc(N(C)c5nc(Cl)ncc5C(N)=O)ccc4c23)C(=O)N1` [I-34, (R)-2-chloro-4-(methyl(10-methyl-8-oxo-9,10,11,12-tetrahydro-8H-[1,4]diazepino[5′,6′:4,5]thieno[3,2-f]quinolin-3-yl)amino)pyrimidine-5-carboxamide], for which the “Mass Modification” value at MK2 [1] was “G (mass modification ≦30%)”. The concentration giving a half-maximal response (EC50) on MK2 [2] (setting [4]) was greater than 1000 nM. Moreover, the IC50 in experiment [3] (setting [5]) lay within 501 to 999 nM.
Taken in the same sequence, the figures for `CNC[C@@H]1CNc2c(sc3ccc4nc(Nc5cc(F)ncn5)ccc4c23)C(=O)N1` [I-35] were “F (mass modification of 31-69%)”, 501 to 999 nM and 101 to 500 nM.
Turning to `C[C@@H]1CNc2c(sc3ccc4nc(N(C)c5cc(F)ncn5)ccc4c23)C(=O)N1` [I-38, (R)-3-((6-fluoropyrimidin-4-yl)(methyl)amino)-10-methyl-9,10,11,12-tetrahydro-8H-[1,4]diazepino[5′,6′:4,5]thieno[3,2-f]quinolin-8-one], the “Mass Modification” value at MK2 [1] is reported as “G (mass modification ≦30%)”. This compound also returned an EC50 on MK2 [2] greater than 1000 nM. The IC50 in experiment [3] (setting [5]) is less than 100 nM.
The like results for `C[C@@H]1CNc2c(sc3ccc4nc(Nc5nc(F)cc(OC6COC6)n5)ccc4c23)C(=O)N1` [I-42, (R)-3-((4-fluoro-6-(oxetan-3-yloxy)pyrimidin-2-yl)amino)-10-methyl-9,10,11,12-tetrahydro-8H-[1,4]diazepino[5′,6′:4,5]thieno[3,2-f]quinolin-8-one] were, in that order, “G (mass modification ≦30%)”, 501 to 999 nM and less than 100 nM.
The like results for `COCCOc1nc(F)cc(Nc2ccc3c(ccc4sc5c(c43)NC[C@@H](C)NC5=O)n2)n1` [I-44, (R)-3-((6-fluoro-2-(2-methoxyethoxy)pyrimidin-4-yl)amino)-10-methyl-9,10,11,12-tetrahydro-8H-[1,4]diazepino[5′,6′:4,5]thieno[3,2-f]quinolin-8-one] were, in that order, “G (mass modification ≦30%)”, 101 to 500 nM and less than 100 nM.
As for `COCCOc1cc(F)nc(Nc2ccc3c(ccc4sc5c(c43)NC[C@@H](C)NC5=O)n2)n1` [I-45, (R)-3-((4-fluoro-6-(2-methoxyethoxy)pyrimidin-2-yl)amino)-10-methyl-9,10,11,12-tetrahydro-8H-[1,4]diazepino[5′,6′:4,5]thieno[3,2-f]quinolin-8-one], the “Mass Modification” value at MK2 [1] is “G (mass modification ≦30%)”. This compound also gave a half-maximal effective concentration (EC50) at MK2 [2] greater than 1000 nM. For the same compound, in experiment [3] (setting [5]), the concentration for half-maximal inhibition (IC50) is less than 100 nM.
As to `C[C@@H]1CNc2c(sc3ccc4nc(Nc5cc(F)nc(OC6CCCN(C)C6)n5)ccc4c23)C(=O)N1` (stereo partly drawn) [I-47, (10R)-3-((6-fluoro-2-((1-methylpiperidin-3-yl)oxy)pyrimidin-4-yl)amino)-10-methyl-9,10,11,12-tetrahydro-8H-[1,4]diazepino[5′,6′:4,5]thieno[3,2-f]quinolin-8-one], the “Mass Modification” value at MK2 [1] is given as “F (mass modification of 31-69%)”. This compound yielded an EC50 on MK2 [2] of 101 to 500 nM. In addition, the IC50 in experiment [3] (setting [5]) was less than 100 nM.
As for `C[C@@H]1CNc2c(sc3ccc4nc(Oc5ccnc(Cl)n5)ccc4c23)C(=O)N1` [I-53, (R)-3-((2-chloropyrimidin-4-yl)oxy)-10-methyl-9,10,11,12-tetrahydro-8H-[1,4]diazepino[5′,6′:4,5]thieno[3,2-f]quinolin-8-one], the “Mass Modification” value on MK2 [1] is “F (mass modification of 31-69%)”. For the same compound, at MK2 [2] (setting [4]), the 50% effective concentration (EC50) was in the range of 101 to 500 nM. The half-maximal inhibitory concentration (IC50) in experiment [3] (setting [5]) was less than 100 nM.
The like results for `C[C@@H]1CNc2c(sc3ccc4nc(Sc5cc(F)ncn5)ccc4c23)C(=O)N1` [I-54, (R)-3-((6-fluoropyrimidin-4-yl)thio)-10-methyl-9,10,11,12-tetrahydro-8H-[1,4]diazepino[5′,6′:4,5]thieno[3,2-f]quinolin-8-one] were, in that order, “E (mass modification of ≧70%)”, greater than 1000 nM and less than 100 nM.
Taken in the same sequence, the figures for `C[C@@H]1CNc2c(sc3ccc4nc(Oc5cncc(Cl)n5)ccc4c23)C(=O)N1` [I-55, (R)-3-((6-chloropyrazin-2-yl)oxy)-10-methyl-9,10,11,12-tetrahydro-8H-[1,4]diazepino[5′,6′:4,5]thieno[3,2-f]quinolin-8-one] were “G (mass modification ≦30%)”, greater than 1000 nM and 101 to 500 nM.
Taken in the same sequence, the figures for `C[C@@H]1CNc2c(sc3ccc4nc(Oc5cc(Cl)ncn5)ccc4c23)C(=O)N1` [I-56, (R)-3-((6-chloropyrimidin-4-yl)oxy)-10-methyl-9,0,11,12-tetrahydro-8H-[1,4]diazepino[5′,6′:4,5]thieno[3,2-f]quinolin-8-one] were “E (mass modification of ≧70%)”, less than 100 nM and less than 100 nM.
